{
  "source": "PubChem BioAssay AID1259407",
  "about": "(Chemical Carcinogenesis Research Information System (CCRIS), 2018)",
  "test_system": "CCRIS mutagenicity, Ames/micronucleus/aberration tests",
  "experiment": "CCRIS mutagenicity studies",
  "key": {"[1]": {"conditions": "Test System: AMES SALMONELLA TYPHIMURIUM, Strain/Indicator: TA98, Metabolic Activation: NONE, Method: PREINCUBATION"}, "[2]": {"conditions": "Test System: AMES SALMONELLA TYPHIMURIUM, Strain/Indicator: TA98, Metabolic Activation: RAT, LIVER, S-9, AROCLOR 1254, Method: STANDARD PLATE"}, "[3]": {"conditions": "Test System: AMES SALMONELLA TYPHIMURIUM, Strain/Indicator: TA100, Metabolic Activation: NONE, Method: PREINCUBATION"}, "[4]": {"conditions": "Test System: AMES SALMONELLA TYPHIMURIUM, Strain/Indicator: TA100, Metabolic Activation: RAT, LIVER, S-9, AROCLOR 1254, Method: STANDARD PLATE"}},
  "note": "The source made the active and inactive calls. How the calls were made is not given here.",
  "data": [
    {"smiles": "O=C(O)CNCP(=O)(O)O", "values": [
      {"measurement": "mutagenic call", "setting": "End Point: IN VITRO MICRONUCLEUS, Test System: BOVINE LYMPHOCYTES, Metabolic Activation: NONE", "value": "inactive; negative"},
      {"measurement": "mutagenic call", "setting": "End Point: IN VIVO CHROMOSOMAL ABERRATIONS, Test System: BONE MARROW ERYTHROCYTES, Species: RABBIT, Strain/Sex: NEW ZEALAND/MALE, Route: DRINKING WATER", "value": "active; positive (structural changes and ploidy)"},
      {"measurement": "mutagenic call", "setting": "End Point: IN VIVO MICRONUCLEUS, Test System: BONE MARROW POLYCHROMATIC ERYTHROCYTES, Species: MOUSE, Strain/Sex: SWISS/MALE, FEMALE, Route: IP 2X IN AQUEOUS SUSPENSION WITHIN 24 HR", "value": "inactive; negative"},
      {"measurement": "mutagenic call", "setting": "End Point: In vitro chromosomal aberrations, Test System: Bovine peripheral lymphocytes, Metabolic Activation: None", "value": "inactive; negative"},
      {"measurement": "mutagenic call", "setting": "End Point: In vivo micronucleus, Test System: Bone marrow erythrocytes, Species: Mouse, Strain/Sex: Balb C/Male, female, Route: Intraperitoneal injection", "value": "active; positive (highest dose only)"},
      {"measurement": "mutagenic call", "setting": "Test System: AMES SALMONELLA TYPHIMURIUM, Strain/Indicator: TA97, Metabolic Activation: HAMSTER, LIVER, S-9, AROCLOR 1254 (10%), Method: PREINCUBATION", "value": "inactive; negative"},
      {"measurement": "mutagenic call", "setting": "Test System: AMES SALMONELLA TYPHIMURIUM, Strain/Indicator: TA97, Metabolic Activation: HAMSTER, LIVER, S-9, AROCLOR 1254 (30%), Method: PREINCUBATION", "value": "inactive; negative"},
      {"measurement": "mutagenic call", "setting": "Test System: AMES SALMONELLA TYPHIMURIUM, Strain/Indicator: TA97, Metabolic Activation: NONE, Method: PREINCUBATION", "value": "inactive; negative"},
      {"measurement": "mutagenic call", "setting": "Test System: AMES SALMONELLA TYPHIMURIUM, Strain/Indicator: TA97, Metabolic Activation: RAT, LIVER, S-9, AROCLOR 1254 (10%), Method: PREINCUBATION", "value": "inactive; negative"},
      {"measurement": "mutagenic call", "setting": "Test System: AMES SALMONELLA TYPHIMURIUM, Strain/Indicator: TA97, Metabolic Activation: RAT, LIVER, S-9, AROCLOR 1254 (30%), Method: PREINCUBATION", "value": "inactive; negative"},
      {"measurement": "mutagenic call", "setting": "Test System: AMES SALMONELLA TYPHIMURIUM, Strain/Indicator: TA98, Metabolic Activation: HAMSTER, LIVER, S-9, AROCLOR 1254 (10%), Method: PREINCUBATION", "value": "inactive; negative"},
      {"measurement": "mutagenic call", "setting": "Test System: AMES SALMONELLA TYPHIMURIUM, Strain/Indicator: TA98, Metabolic Activation: HAMSTER, LIVER, S-9, AROCLOR 1254 (30%), Method: PREINCUBATION", "value": "inactive; negative"},
      {"measurement": "mutagenic call", "setting": "[1]", "value": "inactive; negative"},
      {"measurement": "mutagenic call", "setting": "Test System: AMES SALMONELLA TYPHIMURIUM, Strain/Indicator: TA98, Metabolic Activation: NONE, Method: STANDARD PLATE", "value": "inactive; negative"},
      {"measurement": "mutagenic call", "setting": "Test System: AMES SALMONELLA TYPHIMURIUM, Strain/Indicator: TA98, Metabolic Activation: RAT, LIVER, S-9, AROCLOR 1254 (10%), Method: PREINCUBATION", "value": "inactive; negative"},
      {"measurement": "mutagenic call", "setting": "Test System: AMES SALMONELLA TYPHIMURIUM, Strain/Indicator: TA98, Metabolic Activation: RAT, LIVER, S-9, AROCLOR 1254 (30%), Method: PREINCUBATION", "value": "inactive; negative"},
      {"measurement": "mutagenic call", "setting": "[2]", "value": "inactive; negative"},
      {"measurement": "mutagenic call", "setting": "Test System: AMES SALMONELLA TYPHIMURIUM, Strain/Indicator: TA98, Metabolic Activation: S-9, AROCLOR 1254, Method: STANDARD PLATE", "value": "inactive; negative"},
      {"measurement": "mutagenic call", "setting": "Test System: AMES SALMONELLA TYPHIMURIUM, Strain/Indicator: TA100, Metabolic Activation: HAMSTER, LIVER, S-9, AROCLOR 1254 (10%), Method: PREINCUBATION", "value": "inactive; negative"},
      {"measurement": "mutagenic call", "setting": "Test System: AMES SALMONELLA TYPHIMURIUM, Strain/Indicator: TA100, Metabolic Activation: HAMSTER, LIVER, S-9, AROCLOR 1254 (30%), Method: PREINCUBATION", "value": "inactive; negative"},
      {"measurement": "mutagenic call", "setting": "[3]", "value": "inactive; negative"},
      {"measurement": "mutagenic call", "setting": "Test System: AMES SALMONELLA TYPHIMURIUM, Strain/Indicator: TA100, Metabolic Activation: NONE, Method: STANDARD PLATE", "value": "inactive; negative"},
      {"measurement": "mutagenic call", "setting": "Test System: AMES SALMONELLA TYPHIMURIUM, Strain/Indicator: TA100, Metabolic Activation: RAT, LIVER, S-9, AROCLOR 1254 (10%), Method: PREINCUBATION", "value": "inactive; negative"},
      {"measurement": "mutagenic call", "setting": "Test System: AMES SALMONELLA TYPHIMURIUM, Strain/Indicator: TA100, Metabolic Activation: RAT, LIVER, S-9, AROCLOR 1254 (30%), Method: PREINCUBATION", "value": "inactive; negative"},
      {"measurement": "mutagenic call", "setting": "[4]", "value": "inactive; negative"},
      {"measurement": "mutagenic call", "setting": "Test System: AMES SALMONELLA TYPHIMURIUM, Strain/Indicator: TA100, Metabolic Activation: S-9, AROCLOR 1254, Method: STANDARD PLATE", "value": "active; positive"},
      {"measurement": "mutagenic call", "setting": "Test System: AMES SALMONELLA TYPHIMURIUM, Strain/Indicator: TA1535, Metabolic Activation: HAMSTER, LIVER, S-9, AROCLOR 1254 (10 OR 30%), Method: PREINCUBATION", "value": "inactive; negative"},
      {"measurement": "mutagenic call", "setting": "Test System: AMES SALMONELLA TYPHIMURIUM, Strain/Indicator: TA1535, Metabolic Activation: NONE, Method: PREINCUBATION", "value": "inactive; negative"},
      {"measurement": "mutagenic call", "setting": "Test System: AMES SALMONELLA TYPHIMURIUM, Strain/Indicator: TA1535, Metabolic Activation: NONE, Method: STANDARD PLATE", "value": "inactive; negative"},
      {"measurement": "mutagenic call", "setting": "Test System: AMES SALMONELLA TYPHIMURIUM, Strain/Indicator: TA1535, Metabolic Activation: RAT, LIVER, S-9, AROCLOR 1254 (10 OR 30%), Method: PREINCUBATION", "value": "inactive; negative"},
      {"measurement": "mutagenic call", "setting": "Test System: AMES SALMONELLA TYPHIMURIUM, Strain/Indicator: TA1535, Metabolic Activation: RAT, LIVER, S-9, AROCLOR 1254, Method: STANDARD PLATE", "value": "inactive; negative"},
      {"measurement": "mutagenic call", "setting": "Test System: AMES SALMONELLA TYPHIMURIUM, Strain/Indicator: TA1537, Metabolic Activation: NONE, Method: STANDARD PLATE", "value": "inactive; negative"},
      {"measurement": "mutagenic call", "setting": "Test System: AMES SALMONELLA TYPHIMURIUM, Strain/Indicator: TA1537, Metabolic Activation: RAT, LIVER, S-9, AROCLOR 1254, Method: STANDARD PLATE", "value": "inactive; negative"},
      {"measurement": "mutagenic call", "setting": "Test System: AMES SALMONELLA TYPHIMURIUM, Strain/Indicator: TA1538, Metabolic Activation: NONE, Method: STANDARD PLATE", "value": "inactive; negative"},
      {"measurement": "mutagenic call", "setting": "Test System: AMES SALMONELLA TYPHIMURIUM, Strain/Indicator: TA1538, Metabolic Activation: RAT, LIVER, S-9, AROCLOR 1254, Method: STANDARD PLATE", "value": "inactive; negative"},
      {"measurement": "mutagenic call", "setting": "Test System: CHO/HGPRT, Strain/Indicator: CHO-K1-BH4, Metabolic Activation: NONE, Method: PREINCUBATION", "value": "inactive; negative"},
      {"measurement": "mutagenic call", "setting": "Test System: CHO/HGPRT, Strain/Indicator: CHO-K1-BH4, Metabolic Activation: RAT, LIVER, S-9, AROCLOR 1254, Method: PREINCUBATION", "value": "inactive; negative"},
      {"measurement": "mutagenic call", "setting": "Test System: E. COLI, Strain/Indicator: WP2, Metabolic Activation: NONE, Method: STANDARD PLATE", "value": "inactive; negative"},
      {"measurement": "mutagenic call", "setting": "Test System: E. COLI, Strain/Indicator: WP2, Metabolic Activation: RAT, LIVER, S-9, AROCLOR 1254, Method: STANDARD PLATE", "value": "inactive; negative"}
    ]},
    {"smiles": "Nc1cccc(-c2ccccc2)c1", "values": [
      {"measurement": "mutagenic call", "setting": "[1]", "value": "inactive; negative"},
      {"measurement": "mutagenic call", "setting": "Test System: AMES SALMONELLA TYPHIMURIUM, Strain/Indicator: TA98, Metabolic Activation: RAT LIVER S-9, AROCLOR 1254, Method: PREINCUBATION", "value": "inactive; negative"},
      {"measurement": "mutagenic call", "setting": "Test System: AMES SALMONELLA TYPHIMURIUM, Strain/Indicator: TA98, Metabolic Activation: RAT, LIVER, S-9, AROCLOR 1254 (4%), Method: STANDARD PLATE", "value": "active; positive"},
      {"measurement": "mutagenic call", "setting": "[2]", "value": "inactive; negative"},
      {"measurement": "mutagenic call", "setting": "[3]", "value": "inactive; negative"},
      {"measurement": "mutagenic call", "setting": "Test System: AMES SALMONELLA TYPHIMURIUM, Strain/Indicator: TA100, Metabolic Activation: RAT LIVER S-9, AROCLOR 1254, Method: PREINCUBATION", "value": "inactive; negative"},
      {"measurement": "mutagenic call", "setting": "[4]", "value": "inactive; negative"}
    ]},
    {"smiles": "O=C1c2ccccc2-c2c3c(cc4ccnc1c24)OCO3", "values": [
      {"measurement": "mutagenic call", "setting": "[1]", "value": "inactive; negative"},
      {"measurement": "mutagenic call", "setting": "Test System: AMES SALMONELLA TYPHIMURIUM, Strain/Indicator: TA98, Metabolic Activation: RAT, LIVER, S-9, PHENOBARBITAL AND BETA-NAPHTHOFLAVONE, Method: PREINCUBATION", "value": "active; positive"},
      {"measurement": "mutagenic call", "setting": "[3]", "value": "inactive; negative"},
      {"measurement": "mutagenic call", "setting": "Test System: AMES SALMONELLA TYPHIMURIUM, Strain/Indicator: TA100, Metabolic Activation: RAT, LIVER, S-9, PHENOBARBITAL AND BETA-NAPHTHOFLAVONE, Method: PREINCUBATION", "value": "active; positive"}
    ]}
  ]
}
